≈ marks a conversion by molar mass, not a printed value. Where two headings read alike, the source gives them in different places.
Legend:
[1] = system: some bacteria belonging to the genus Streptococcus or Branhamella; details: cited from earlier work
[2] = mice; EP-A-560,147; cited from earlier work
esterase = details: EP-A-560,147 derivatives; cited from earlier work
[3] = recovery in urine after oral administration to mice, bioassay; format: in vivo; details: mouse, 200 mg/kg oral (compound (3)), urine 4 and 24 hours
Description: Subsequently, 200 mg/kg of the compound (3) was orally administered to three mice in the same manner as described above.
The three mice were put in a metabolic cage MM type (Sugiyamagen Company, Tokyo, Japan) and urine was collected 4 and 24 hours after the administration of the test compound. The collected urine was filtered through a filter having a pore size of 0.45 μm (Millipore) and was mixed with an equivalent volume of 50% CH3CN-50 mM phosphate (1:1 by volume) buffer (pH 6.5) to serve as a urine sample. The bioassay was carried out in the same manner as described above to determine the concentration of the test compound in the urine sample. The recovering in the urine was calculated according to the following equation. [formula]

[4] = pharmacokinetics of midecamycins after oral administration to mice; format: in vivo
From the text: First, the present inventors discussed effects of a difference in the structure at the 9-position among midecamycin analogues, from among 16-membered macrolide compounds, on pharmacokinetics. That is to say, midecamycin A1 having a hydroxyl group at the 9-position (Medemycin; MDM) [Journal of Antibiotics, 24 (7), 452 (1971)] and midecamycin A3 having a carbonyl group at the 9-position [ibid., 24 (7), 476 (1971)] were orally administered to animals (mice), followed by observing the pharmacokinetics.

S. Pneumoniae Type 1 = test: MIC, agar plate dilution method; format: cell-based; details: Streptococcus pneumoniae; S. Pneumoniae Type 1; 37° C., 20 hours; read-out: Antimicrobial activity (MIC)
Description: (§1) Antimicrobial activities of the compounds of the present invention were determined by measuring minimum inhibitory concentration (MIC). Minimum inhibitory concentration was determined by the agar plate dilution method in the following manner.
(§2) Test strains were subjected to seed culture using Sensitivity test broth (STB, Nissui Pharmaceutical) except that the strains belonging to the genus Streptococcus, Branhamella and Haemophilus were cultured on blood agar plate. A 5 μl portion of cell suspension of the test strains having about 10^6 CFU/ml was inoculated into Sensitivity disk agar (SDA, Nissui Pharmaceutical) supplemented with 5% horse blood and incubated at 37° C. for 20 hours. Then, MIC was measured. For comparison, MDM and leucomycin A7 (LM-A7) was also tested.

M. luteus ATCC9341 = test: MIC, agar plate dilution method; format: cell-based; details: Micrococcus luteus, read-out: Antimicrobial activity (MIC)
Description: as §1, §2

M. pneumoniae FH-P24 = test: MIC, agar plate dilution method; format: cell-based; details: Mycoplasmoides pneumoniae, FHP24, 20 h, read-out: Antimicrobial activity (MIC)
Description: as §1, §2

M. pneumoniae Mac = test: MIC, agar plate dilution method; format: cell-based; details: Mycoplasmoides pneumoniae, 20 h, read-out: Antimicrobial activity (MIC)
Description: as §1, §2

H. influenzae 9334 = test: MIC, agar plate dilution method; format: cell-based; details: Haemophilus influenzae; H. influenzae 9334; 37° C., 20 hours; read-out: Antimicrobial activity (MIC)
Description: as §1, §2

E. coli NIHJ JC-2 = test: MIC, agar plate dilution method; format: cell-based; details: Escherichia coli, NIHJJC2; E. coli NIHJ JC-2; 37° C., 20 hours; read-out: Antimicrobial activity (MIC)
Description: as §1, §2

S. aureus MS15027 = test: MIC, agar plate dilution method; format: cell-based; details: Staphylococcus aureus, 37° C., 20 hours, read-out: Antimicrobial activity (MIC)
Description: as §1, §2

B. catarrhalis W-0500 = test: MIC, agar plate dilution method; format: cell-based; details: Moraxella catarrhalis, W0500, 37° C., 20 hours, read-out: Antimicrobial activity (MIC)
Description: as §1, §2

S. aureus MS15009/pMS98 = test: MIC, agar plate dilution method; format: cell-based; details: Staphylococcus aureus, MS15009/PMS98, 20 h, read-out: Antimicrobial activity (MIC)
Description: as §1, §2

S. aureus MS15026 = test: MIC, agar plate dilution method; format: cell-based; details: Staphylococcus aureus, 37° C., 20 hours, read-out: Antimicrobial activity (MIC)
Description: as §1, §2

M. pneumoniae FH = test: MIC, agar plate dilution method; format: cell-based; details: Mycoplasmoides pneumoniae, 20 h, read-out: Antimicrobial activity (MIC)
Description: as §1, §2

S. aureus M133 = test: MIC, agar plate dilution method; format: cell-based; details: Staphylococcus aureus, 37° C., 20 hours, read-out: Antimicrobial activity (MIC)
Description: as §1, §2

B. catarrhalis W-0506 = test: MIC, agar plate dilution method; format: cell-based; details: Moraxella catarrhalis, W0506, 37° C., 20 hours, read-out: Antimicrobial activity (MIC)
Description: as §1, §2

S. aureus 209P JC-1 = test: MIC, agar plate dilution method; format: cell-based; details: Staphylococcus aureus; S. aureus 209P JC-1; 37° C., 20 hours; read-out: Antimicrobial activity (MIC)
Description: as §1, §2

S. aureus MS15009/pMS99 = test: MIC, agar plate dilution method; format: cell-based; details: Staphylococcus aureus, MS15009/PMS99, 20 h, read-out: Antimicrobial activity (MIC)
Description: as §1, §2

S. pneumoniae IP692 = test: MIC, agar plate dilution method; format: cell-based; details: Streptococcus pneumoniae, read-out: Antimicrobial activity (MIC)
Description: as §1, §2

K. pneumoniae PC1602 = test: MIC, agar plate dilution method; format: cell-based; details: Klebsiella pneumoniae, 37° C., 20 hours, read-out: Antimicrobial activity (MIC)
Description: as §1, §2

S. epidermidis ATCC14990 = test: MIC, agar plate dilution method; format: cell-based; details: Staphylococcus epidermidis, 37° C., 20 hours, read-out: Antimicrobial activity (MIC)
Description: as §1, §2

M. pneumoniae Numata = test: MIC, agar plate dilution method; format: cell-based; details: Mycoplasmoides pneumoniae, 20 h, read-out: Antimicrobial activity (MIC)
Description: as §1, §2

S. Pyogenes Cook = test: MIC, agar plate dilution method; format: cell-based; details: Streptococcus pyogenes, 37° C., 20 hours, read-out: Antimicrobial activity (MIC)
Description: as §1, §2

S. aureus M126 = test: MIC, agar plate dilution method; format: cell-based; details: Staphylococcus aureus; S. aureus M126; 37° C., 20 hours; read-out: Antimicrobial activity (MIC)
Description: as §1, §2

E. faecalis W-73 = test: MIC, agar plate dilution method; format: cell-based; details: Enterococcus faecalis, W73; E. faecalis W-73; 37° C., 20 hours; read-out: Antimicrobial activity (MIC)
Description: as §1, §2

[5] = concentration in serum after oral administration to mice, bioassay; format: in vivo, mice (Jcl:ICR); details: mouse, serum, 200 mg/kg, M. luteus bioassay, read-out: maximum concentration in the serum
Description: The compound (3) was mixed with a 0.2% solution of carboxymethylcellulose to give a concentration of 4 mg/ml and a 1 ml portion of the resulting emulsion was orally administered to 4-week-old male Jcl:ICR mice. Blood was collected from armpit of the mice 30, 60, 120, 240 and 360 minutes after the administration of the test compound (n=2). The collected blood was allowed to stand at room temperature for about 2 hours and centrifuged for 20 minutes with a centrifuge (KUBOTA KS-5000P) to obtain serum. To the serum was added an equivalent volume of 50% CH3 CN-50 mM phosphate (1:1 by volume) buffer (pH 7.0). The resulting mixture served as a serum sample. The concentration of the test compound in the serum sample was measured by the following bioassay method.
One hundred […] of the serum sample was poured into a hole made on a test plate containing 40 ml of MRAPJ medium (6 g/l peptone, 3 g/l yeast extract, 1.5 g/l meat extract, 1 g/l glucose and 15 g/l agar, pH 6.5) supplemented with a solution of M. Iuteus ATCC9341 (1%) and incubated at 32° C. for 18 hours and MIC was measured based on the calibration curve. MOM, MDM and RKM were also tested for comparison. […] Thus a long-pending problem of "low concentration in serum" of 16-membered macrolide antibiotics has been solved. […] Thus this compound is considered as a macrolide derivative showing new pharmacokinetics.
Further, a pharmacokinetics test on the compound (12) of the present invention is carried out in the same manner as described above. Namely, 200 mg/kg of the compound (12) is orally administered to mice and the concentration of this compound in the serum is determined by a bioassay method with the use of M. luteus as a test strain. […] The disadvantage of 16-membered ring macrolide antibiotics, which has been pointed out for a long time, has been thus overcome.

metabolism in plasma = format: in vitro ADME, rat; details: no free hydroxyl group in the neutral sugar moiety formed
Description: Each test compound and 50 μl of a methanol solution (10,000 γ) were added to 950 μl of thawed rat plasma and the resulting mixture was incubated at 37° C. for 24 hours. After completion of the incubation, a 20 μl portion of the mixture was added to 980 μl of 0.05M phosphate buffer (pH 7.6). A 20 μl portion of the sample solution was used to measure antimicrobial activity against M. luteus. Separately, the calibration curve was prepared by using a methanol solution containing each test compound. The starting activity of each compound in the plasma was referred to as 100%.

[6] = system: Gram-positive bacteria and Mycoplasma; test: antimicrobial activity in vitro (summary in words); format: cell-based; details: from Table 1
Description: as §1, §2

Row | Compound | MIC (S. Pneumoniae Type 1) [µg/mL] | MIC (M. pneumoniae Mac) [µg/mL] | MIC (H. influenzae 9334) [µg/mL] | MIC (E. coli NIHJ JC-2) [µg/mL] | MIC (S. aureus MS15027) [µg/mL] | MIC (B. catarrhalis W-0500) [µg/mL] | MIC (S. aureus MS15009/pMS98) [µg/mL] | MIC (S. aureus MS15026) [µg/mL] | MIC (M. pneumoniae FH) [µg/mL] | MIC (S. aureus M133) [µg/mL] | MIC (B. catarrhalis W-0506) [µg/mL] | MIC (S. aureus 209P JC-1) [µg/mL] | MIC (S. aureus MS15009/pMS99) [µg/mL] | MIC (K. pneumoniae PC1602) [µg/mL] | MIC (S. epidermidis ATCC14990) [µg/mL] | MIC (M. pneumoniae Numata) [µg/mL] | MIC (S. Pyogenes Cook) [µg/mL] | MIC (S. aureus M126) [µg/mL] | MIC (E. faecalis W-73) [µg/mL] | further results
1 | CCC(=O)O[C@@H]1CC(=O)O[C@H](C)C/C=C/C=C/C(=O)[C@H](C)C[C@H](CC=O)[C@H](O[C@@H]2O[C@H](C)[C@@H](O[C@H]3C[C@@](C)(OC)[C@@H](OCCC(C)C)[C@H](C)O3)[C@H](N(C)C)[C@H]2O)[C@H]1OC [4"-O-depropionyl-4"-O-isoamyl-3"-O-methylmidecamycin A3] |  |  |  |  |  |  |  |  |  |  |  |  |  |  |  |  |  |  |  | antimicrobial activity compared with MOM [1]: enhanced antimicrobial activity; maximum concentration in serum compared with marketed 16-membered macrolide antibiotics [2]: clearly improved; recovery in urine compared with marketed 16-membered macrolide antibiotics [2]: clearly improved; attack of the mycarose moiety by esterase (esterase): scarcely attacked by esterase
2 | CCC(=O)O[C@@H]1CC(=O)O[C@H](C)C/C=C/C=C/[C@H](O)[C@H](C)C[C@H](CC=O)[C@H](O[C@@H]2O[C@H](C)[C@@H](O[C@H]3C[C@@](C)(O)[C@@H](OC(=O)CC)[C@H](C)O3)[C@H](N(C)C)[C@H]2O)[C@H]1OC [MDM, midecamycin A1, reference compound] | 0.39 (≈ 0.479 µM) | 0.1 (≈ 0.123 µM) | 3.13 (≈ 3.85 µM) | > 100 | 0.78 (≈ 0.958 µM) | 3.13 (≈ 3.85 µM) | 0.39 (≈ 0.479 µM) | > 100 | 1.56 (≈ 1.92 µM) | 0.78 (≈ 0.958 µM) | 1.56 (≈ 1.92 µM) | 0.39 (≈ 0.479 µM) | > 100 | > 100 | 1.56 (≈ 1.92 µM) | 0.05 (≈ 0.0614 µM) | 0.2 (≈ 0.246 µM) | > 100 | 3.13 (≈ 3.85 µM) | dose excreted at 24 h [3]: < 2%; recovery in urine compared with midecamycin A3 [4]: superior to midecamycin A3; sustained concentration in serum compared with midecamycin A3 [4]: superior to midecamycin A3; MIC (M. luteus ATCC9341; M. luteus ATCC9341, 37° C., 20 hours): 0.05 µg/mL (≈ 0.0614 µM); MIC (M. pneumoniae FH-P24; M. pneumoniae FH-P24): 0.1 µg/mL (≈ 0.123 µM); MIC (S. pneumoniae IP692; S. pneumoniae IP692, 37° C., 20 hours): 0.39 µg/mL (≈ 0.479 µM); Cmax [5]: 5200 ng/mL
3 | CCCCCCO[C@H]1[C@H](C)O[C@@H](O[C@H]2[C@H](N(C)C)[C@@H](O)[C@H](O[C@H]3[C@@H](CC=O)C[C@@H](C)[C@@H](O)/C=C/C=C/C[C@@H](C)OC(=O)C[C@@H](OC(=O)CC)[C@@H]3OC)O[C@@H]2C)C[C@@]1(C)OC [(5)] | 0.2 (≈ 0.234 µM) | 0.2 (≈ 0.234 µM) | 6.25 (≈ 7.3 µM) | > 100 | 1.56 (≈ 1.82 µM) | 1.56 (≈ 1.82 µM) | 0.78 (≈ 0.911 µM) | > 100 | 1.56 (≈ 1.82 µM) | 1.56 (≈ 1.82 µM) | 1.56 (≈ 1.82 µM) | 0.39 (≈ 0.456 µM) | > 100 | > 100 | 1.56 (≈ 1.82 µM) | 0.05 (≈ 0.0584 µM) | 0.2 (≈ 0.234 µM) | > 100 | 3.13 (≈ 3.66 µM) | extent of metabolism (metabolism in plasma): hardly metabolized; MIC (M. luteus ATCC9341; ATCC9341, 20 h): 0.1 µg/mL (≈ 0.117 µM); MIC (M. pneumoniae FH-P24): 0.2 µg/mL (≈ 0.234 µM); MIC (S. pneumoniae IP692; IP692, 20 h): 0.2 µg/mL (≈ 0.234 µM); degree of loss of the antimicrobial activity in the plasma compared with MOM (M. luteus): lower than that of MOM; duration of antimicrobial activity in rat plasma (M. luteus): extremely long-acting in rat plasma; antimicrobial activities on Gram-positive bacteria and Mycoplasma [6]: strong antimicrobial activities
